Key:
[1] = SPR of immobilization of cutinase to SAM terminated in phosphonate binding partner; settings: PBS pH 7.4; not removed by SDS 0.5 mg/mL
Protocol: A self-assembled monolayer (SAM) terminated in a phosphonate binding partner moiety was prepared. The ligand was present at a low density mixed with tri(ethylene glycol) groups, which resist non-specific protein adsorption. The immobilization of cutinase to the monolayer was characterized by SPR spectroscopy. Phosphate buffered saline (pH 7.4) was flowed over the monolayer for 2 min to establish a baseline, followed by a solution of protein in the same buffer for 10 min to observe binding. Finally, the protein solution was replaced with buffer for 6 min to quantitate the amount of protein that was irreversibly immobilized.

[2] = target: T1, β1,4-galactosyltransferase (Bos taurus, UniProt P08037); assay: Glycosyltransferase assay on immobilized carbohydrates (UDP [14C] galactose, phosphorimaging); assay type: biochemical, bovine; settings: three immobilized carbohydrate substrates; UDP [^14C] galactose 3.5 μM
T1 sequence (P08037 1-402): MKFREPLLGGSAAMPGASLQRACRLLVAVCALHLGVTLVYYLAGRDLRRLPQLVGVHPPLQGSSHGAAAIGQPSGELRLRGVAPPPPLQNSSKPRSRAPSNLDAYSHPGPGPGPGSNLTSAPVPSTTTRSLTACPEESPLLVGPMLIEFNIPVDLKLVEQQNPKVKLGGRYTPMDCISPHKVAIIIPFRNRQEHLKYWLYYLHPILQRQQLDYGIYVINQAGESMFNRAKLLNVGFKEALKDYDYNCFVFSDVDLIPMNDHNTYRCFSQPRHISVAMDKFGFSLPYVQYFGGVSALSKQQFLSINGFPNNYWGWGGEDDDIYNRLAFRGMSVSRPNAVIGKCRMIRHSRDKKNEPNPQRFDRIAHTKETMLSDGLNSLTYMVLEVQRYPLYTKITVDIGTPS
Protocol: FIG. 12 depicts the results of a Glycosyltransferase assay. The surface comprises three different carbohydrate substrates defined by columns and a control column (no substrate). Each row was reacted with a different concentration of β1,4-galactosyltransferase and a constant concentration of sugar donor (UDP [^14C] galactose, 3.5 μM). The reaction was detected by phosphorimaging.
Referring to FIG. 12, in the glycosyltransferase assay, various carbohydrates were immobilized using a thiol chemical tag to bond to a monolayer thiolate bearing a maleimide group. A glycosyltransferase enzyme was added to the immobilized carbohydrates. The ability of the enzyme to add radioactively labeled sugars to the immobilized carbohydrates was measured. In the glycosyltransferase assay the enzyme that was employed is bovine recombinant β1,4-galactosyltransferase. Preferably, the enzyme is at a concentration of about 10 pM to about 100 uM. More preferably, the enzyme is at a concentration of about 100 pM to about 1 uM.
Detection of glycosylation of the immobilized carbohydrate substrates on the base plate was performed radiometrically. The incorporation of ^14C was quantified by exposing a storage phosphor screen to the plate and then imaging it on a Variable Mode Imager (Typhoon 8600; Molecular Dynamics, Sunnyvale, Calif.). […]

streptavidin = streptavidin (Streptomyces avidinii, UniProt P22629); assay: SPR of streptavidin binding to maleimide SAM treated with biotinylated model peptides; settings: SAM presenting maleimide at 2%, then streptavidin
From the text: Michael acceptor-derivatized surfaces like that depicted in FIG. 1 are well adapted for selectively immobilizing and orienting functional organic molecules for such uses as biosensors, high throughput assays, binding assays, enzymatic assays and cell cultures. […] Surface binding was detected using biotinylated, cysteine-containing peptides and streptavidin. SAMs presenting the maleimide group at a density of 2% were applied to gold-coated coverslips according to the Examples. The SAM coated coverslips were each treated with solutions containing various reactive molecules dissolved in phosphate buffer (pH 6), and the reactivity of the surface was characterized by flowing the protein streptavidin, which selectively binds biotin, over the SAM. Streptavidin binding was quantitated by surface plasmon resonance.
Referring to FIG. 3, sensorgram (A), the SAM-coated coverslip was treated with a solution of the model biotinylated peptide biotin-NH-Arg-Asp-Cys-CONH2 (1.2 mM) for 12 minutes. 2280 RU of streptavidin binding was observed. Sensorgram (B) was obtained using a solution containing a mixture of the model peptide (0.6 mM) and lysine (16 mM). […]
SPR was performed with a Biacore 3000 instrument. Gold-coated glass microscope cover glass presenting SAMs to be analyzed were mounted in SPR cartridges. […]

[3] = SPR of biospecific-covalent attachment of cutinase-fusion protein to PNPP-terminated surfaces; assay type: binding
Protocol: A gold chip that presents 1.5% maleimide groups in a background of EG3 was exposed to a 5 mM methanolic solution of (8-mercapto-octyl)-phosphonic acid ethyl ester 4-nitro-phenyl ester—the bifunctional molecule (compound 5; HS-PNPP)—for 1 hour. During this process the thiol group of HS-PNPP reacts with the maleimide groups at the surface and results in 1.5% of a monolayer of the PNPP ligand being presented at the surface.
The chip created above was then loaded into the SPR machine that contacts a microfluidic manifold to the gold chip to allow different solutions to be delivered to the surface in up to 4 flow channels. The following fluidic protocol was then applied to the surface and the SPR signal—which measures the mass of protein that adsorbs to the surface—was measured as a function of time:
t=0 to 300 s. Flow channels 1-3 (Fc=1 to 3) were all exposed to 20 mM tris (pH 7.4) buffer t=300 to 1500 s. Fc=1 to 3 were then exposed to 3 different solutions: Fc=1: 500 ug/mL fibrinogen in 20 mM tris (pH 7.4) buffer Fc=2: 40 microM of cutinase fused to hexahistidine (cutinase-his6) in 20 mM tris buffer Fc=3: 40 microM of cutinase-his6 pre-mixed with 100 microM of PNPP t=1500 to 2250 s. Fc=1 to 3 were all exposed to 20 mM tris (pH 7.4) buffer t=2250 to 2850 s. Fc=1 to 3 were all exposed to 8 mM SDS in 20 mM tris (pH 7.4) buffer t>2850 s. Fc=1 to 3 were all exposed to 20 mM tris (pH 7.4) buffer

[4] = SPR of protein adsorption on biotin-presenting maleimide/EG3 mixed SAM surface (specific binding and NSB)
Protocol: FIG. 4 is a surface plasmon resonance sensorgram of a SAM presenting maleimide at a density of 2%. The SAM-coated coverslip was treated with the biotinylated, thiol-containing, model peptide biotin-NH-Arg-Asp-Cys-CONH2 (1.2 mM) for 12 minutes. Afterwards, a solution of the “sticky” protein fibrinogen (0.5 mg/mL) was flowed over the surface. Only 60 RU of adsorption was observed. Another coverslip was treated with the model peptide solution and then treated with streptavidin that had been pre-incubated with biotin.
A gold chip that presents 1.5% maleimide groups in a background of EG3 was loaded into an SPR machine (Biacore 3000). Two flow channels over this chip were simultaneously exposed to cysteine-biotin that reacts with the maleinide in order to present 1.5% biotin at the surface. Subsequently, one channel was exposed to 70 ug/mL of streptavidin and then one channel was exposed to 500 ug/mL of fibrinogen.
SPR was performed with a Biacore 3000 instrument. Gold-coated glass microscope cover glass presenting SAMs to be analyzed were mounted in SPR cartridges. All experiments used a flow rate of 10 μL/min.

## Cutinase: recombinant Fusarium solani pisi cutinase expressed in E. coli
[1]
  binding to phosphonate monolayer: bound irreversibly to the surface

## GlcNAc
[2]
  substrate for the enzyme: only the immobilized GlcNAc was a substrate

## biotin-NH-Arg-Asp-Cys-CONH2
streptavidin; peptide 1.2 mM for 12 minutes
  streptavidin binding: 2280 RU

## biotin-NH-Arg-Asp-Lys-CONH2
streptavidin; peptide 4 mM for 12 minutes
  streptavidin binding: no streptavidin binding

## cutinase-his6: cutinase fused to hexahistidine
[3]; Fc=2, 40 microM in 20 mM tris buffer
  protein immobilized: 1150 RU
[3]; Fc=2, after 8 mM SDS wash
  protein immobilized after SDS wash: 1080 RU
[3]; Fc=3, 40 microM pre-mixed with 100 microM PNPP
  adsorption after preincubation with PNPP: 30 RU

## fibrinogen
[4]; 1.5% maleimide in EG3 reacted with cysteine-biotin, 500 ug/mL fibrinogen
  signal change caused by adsorption (NSB): 90 RU
[4]; SAM 2% maleimide treated with biotin-NH-Arg-Asp-Cys-CONH2, fibrinogen 0.5 mg/mL
  adsorption (non-specific): 60 RU
[3]; Fc=1, 500 ug/mL fibrinogen
  non-specific binding to PNPP surface: did not stick to this surface

## streptavidin: protein which selectively binds biotin
[4]; 1.5% maleimide in EG3 reacted with cysteine-biotin, 70 ug/mL streptavidin
  signal change caused by adsorption: 2100 RU

From patent US20090325262A1, “Immobilization of biological molecules onto surfaces coated with monolayers” (SURFACE LOGIX, INC., priority 2001, published 2009)
